This note sets out measurements from article PMC11184559, “Identification and Validation of Compounds Targeting Leishmania major Leucyl-Aminopeptidase M17” (ACS Infectious Diseases, 2024).

The structures appear in SMILES notation. Values joined by “and” are separate entries in the source; they are usually repeats but may differ in a detail not shown here. Equal values may be shown once.

The target in one assay is rLmLAP (Leishmania major, UniProt Q7KF27). In words: RapidFire-MS aminopeptidase activity assay: inhibition of rLmLAP (LSTVIVR substrate). The format is biochemical. The note with it: for IC50: RapidFire-MS, 5 nM enzyme, 10 μM LSTVIVR, 20 min preincubation, 0.195-100 μM, mean ± standard error (n = 3). On the procedure: Assays were carried out as previously described,[24] with some differences indicated below. The reaction mix consisted of 0 nM (control) and 30 nM rLmLAP in 1× PBS, pH 7.0, 0.005% (v/v) NP-40, plus 7.5 μL of LSTVIVR substrate peptide in the same buffer. For product quantification, the peak areas of the LSTVIVR peptide were integrated with respect to the internal standard LSTVIVR* peptide. The C-terminal arginine was chosen because this amino acid is amenable to isotopic labeling.[45]
rLmLAP was assayed at 5 nM with 10 μM (1× appKM) of LSTVIVR substrate peptide. The enzyme was preincubated with bestatin or DMSO for 20 min. Bestatin was prepared at 10 concentrations in DMSO, covering the range from 0.39 to 100 μM. […] The remaining experimental conditions were maintained, as described above.
A high-throughput screen was conducted against rLmLAP using 3,383 compounds with known protease inhibitor motifs. The compounds were dispensed onto plates using an ECHO 550 acoustic dispenser (Labcyte, Sunnyvale, CA). The enzyme was assayed at 5 nM with 10 μM (1× appKM) LSTVIVR substrate for 60 min. Before adding the substrate, the enzyme was preincubated with 45 nL of the compounds or DMSO for 20 min. Compounds, dissolved in DMSO, were tested at 30 μM. […] No replicates were performed for each inhibitor in this experiment. The remaining experimental conditions were kept constant as described above. The ActivityBase program from IDBS provider (https://www.idbs.com) was used to process and analyze the data. Selection criteria for potential inhibitors in this screen required an inhibition percentage greater than the mean (calculated from the inhibition percentages of all the inhibitors) plus three standard deviations (SD). All compounds were purchased commercially and are >95% pure by HPLC.
To obtain IC50 data for screen-detected rLmLAP inhibitors at a single concentration, ten-point concentration–response curves were generated for selected inhibitors showing greater than mean ±3 SD inhibition. The curves were prepared in 384-well plates with a maximum concentration of 100 μM and 1:2 serial dilutions in DMSO (0.195–100 μM) using an ECHO 550 acoustic dispenser. All other experimental conditions were as described above for RapidFire-MS optimization. Three replicates of each concentration of inhibitor were evaluated. The IC50 value was calculated by nonlinear fitting of a four-parameter logistic function to the experimental data. Curve fitting and IC50 calculations were performed using IDBS ActivityBase XE version 9.2.0.106. Inhibitory activity was determined using the peak area ratio, calculated as the reaction product (STVIVR) divided by its internal standard (*LSTVIVR). The peak area ratio of the reaction without enzyme was defined as 100% inhibitory activity, and that of the complete reaction mixture was defined as 0% inhibitory activity. At least three replicates were generated for each hit compound.

In assay [1] the test system is L. donovani intracellular amastigotes. As to the kind of experiment: Leishmania donovani intracellular (intramacrophage) assay, single concentration. The format is cell-based. The note with it: Leishmania donovani, Macrophage, 96 h, intracellular amastigotes in macrophages, Hoechst imaging, read-out: Inhibition of L. donovani proliferation (%). On the procedure:
The effect of the compounds selected as inhibitors of rLmLAP on the proliferation of L. donovani amastigotes was evaluated at a concentration of 50 μM. Macrophage cultures (ECACC, catalog number: 88081201) were used as host cells. Parasites were incubated with 4.27× 10^7 macrophages, at a multiplicity of infection (MOI) of 5, at 37 °C with 5% CO2, overnight in DMEM medium supplemented with 4.5 g/L glucose and glutamine and 10% FBS, in a Millicell HY T-600 three-layer culture flask (Merck Millipore, Solna, Sweden). […] Macrophages were incubated for another 24 h in the above conditions with 133 μL of fresh DMEM medium prewarmed at 37 °C and supplemented with 10% FBS to obtain a high count of intracellular amastigotes.
Forty-two hours after macrophage infection, compounds (50 μM, 250 nL in DMSO) were dispensed using LabCyte ECHO into each well of 384-well dark flat bottom plates (Corning, New York, USA). The plates were incubated at 37 °C, 5% CO2, for 4 h (without compounds, with DMSO, to determine the initial level of infection) and for 96 h (with and without compounds).

Chain of rLmLAP (Q7KF27 entry or part of it): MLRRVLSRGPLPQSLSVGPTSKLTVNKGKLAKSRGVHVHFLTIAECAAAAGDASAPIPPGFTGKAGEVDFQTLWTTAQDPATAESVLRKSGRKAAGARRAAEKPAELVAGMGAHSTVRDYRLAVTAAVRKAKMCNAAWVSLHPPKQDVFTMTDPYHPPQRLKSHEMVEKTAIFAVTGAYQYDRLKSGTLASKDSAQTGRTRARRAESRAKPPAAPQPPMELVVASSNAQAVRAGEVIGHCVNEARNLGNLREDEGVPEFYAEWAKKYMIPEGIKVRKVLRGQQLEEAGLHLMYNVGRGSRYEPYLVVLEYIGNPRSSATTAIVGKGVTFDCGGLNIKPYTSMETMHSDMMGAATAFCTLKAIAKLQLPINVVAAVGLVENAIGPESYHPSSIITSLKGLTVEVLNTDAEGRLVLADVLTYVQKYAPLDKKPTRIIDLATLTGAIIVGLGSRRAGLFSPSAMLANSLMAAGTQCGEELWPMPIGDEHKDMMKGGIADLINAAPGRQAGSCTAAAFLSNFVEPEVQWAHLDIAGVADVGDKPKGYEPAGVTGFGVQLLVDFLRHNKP

As to `CC(C)C[C@H](NC(=O)[C@@H](O)[C@H](N)Cc1ccccc1)C(=O)O` [Bestatin, reference compound], at rLmLAP, the IC50 was 6 µM and 6.1 µM.
For `Cc1cc(C(=O)N(Cc2ccco2)Cc2cc3ccc(Cl)cc3nc2N2CCCC2)n(C)n1` [DDD00092594], half-maximal inhibition at rLmLAP (IC50) was put at 36.3 ± 3.3 µM. Besides, in assay [1], the inhibition at 50 µM was determined as 19.9 ± 1.3%.
The matching figures for `N#CC(=Cc1cn(Cc2ccc(C(=O)O)o2)c2ccccc12)c1ccc(F)cc1` [DDD00092624]: 35.2 ± 3.2 µM and 7 ± 1%.
On rLmLAP, `N#CC(=Cc1cn(Cc2ccc(C(=O)O)o2)c2ccccc12)c1nc2ccccc2[nH]1` [DDD00092640] yielded an IC50 of 20.2 ± 1.1 µM. In addition, the inhibition at 50 µM in assay [1] came to 0%.
The matching figures for `CS(=O)(=O)Nc1cc2ccccc2cc1C(=O)O` [DDD00095117]: 19 ± 1 µM and 0%.
In the same order, the values of `COc1ccc(S(=O)(=O)N2Cc3ccccc3CC2C(=O)O)cc1` (stereo not shown) [DDD00095849] are 60 ± 5 µM and 12.7 ± 1.5%.
For `Cc1ccc(C(=O)O)cc1S(=O)(=O)Nc1cccc(C2SCCS2)c1` [DDD00096698], the IC50 on rLmLAP was 50 ± 4 µM. Further, on rLmLAP (single-point high-throughput screen at 30 μM, read-out: Inhibition of rLmLAP in the screening), the inhibition at 30 µM was about 65%. Moreover, the inhibition at 50 µM in assay [1] amounted to 0%.
`O=C(O)c1ccc(-c2nccs2)s1` [DDD00097905] came in with a half-inhibitory concentration (IC50) on rLmLAP of 37.1 ± 3.3 µM. In assay [1], the inhibition at 50 µM turned out to be 0%.

Broadly, the IC50 is the point on the concentration scale where inhibition reaches its midpoint. Low values mean inhibition by little substance, high ones a need for much substance.
